The values that follow come from patent publication US20110065734A1, “NOVEL BIFUNCTIONAL COMPOUNDS WHICH INHIBIT PROTEIN KINASES AND HISTONE DEACETYLASES” (4SC AG, priority 2007, published 2011).

Where a name gives a salt, the structure may show the parent alone. Read-outs that look alike come from different tables or passages of the source.

By IC50 is commonly meant the concentration that gives 50% inhibition. What is called EC50 is the concentration at which the effect is half-maximal. As usually defined, the melting point is the temperature of the solid-liquid transition.

Data set [1] addresses T1, HER2 (Homo sapiens, UniProt P04626).
T1 construct: HER2 c-terminal kinase domain; made in house
Kind of data set: Biochemical flash-plate based kinase assay, HER2. The note with it: only a range over the listed compounds is given; read-out: HER2 inhibition IC50. From the text:
Active kinase proteins were either obtained from commercial suppliers (Abl, PDGF-Rβ ProQinase, Freiburg/Germany; AblT^315I: Millipore/Upstate, Billerica/USA; PKA: InvitroGen/Panvera, Carlsbad/USA) or prepared in-house (KDR, c-terminal kinase domain AA790-1356, HER2 c-terminal kinase domain, EGFR/HER1 C-terminal kinase domain). As substrates, poly-AGKY for Abl, AblT^315I and PDGF-Rβ (#P-1152 Sigma, Munich/Germany), poly-GluTyr for KDR, HER2 and EGFR/HER1 (#P-0275, Sigma, Munich/Germany) or a PKA substrate peptide for PKA (#12-394, Millipore/Upstate, Billerica/USA) were used. Into each well of a 96-well flashplate (#SMP-200 in the case of Abl, Abl T^315I, PDGF-Rβ, EGFR, HER2 and KDR, #SMP-103 in the case of PKA; Perkin Elmer, Waltham/USA) kinase protein was diluted into kinase assay buffer (50 mM HEPES pH 7.5, 3 mM MgCl2, 3 mM MnCl2, 1 mM DTT, 3 μM sodium orthovanadate, 5 μg/ml PEG 8000) containing the appropriate substrate (final volume 89 μl). DMSO vehicle or compounds are added as 1 μl/well prior to the initiation of the kinase reaction by 10 μl 1 mM [^33P]-γATP (4×10^5 cpm). […] Plates were washed three times with 0.9% w/v NaCl and quantitated by liquid scintillation counting.

Data set [2] deals with HeLa cervical carcinoma cell line. Kind of data set: Cellular cytotoxicity assay (Alamar Blue), HeLa. It is filed as cell-based. The note with it: Homo sapiens, 72 h.
The test system of data set [3] is histone H3 hyperacetylation in HeLa cervical carcinoma cells. The data set is described as follows: Cellular histone H3 hyperacetylation assay. The note with it: Homo sapiens, 24 h, only a range over the listed compounds is given, read-out: Induction of histone H3 hyperacetylation in HeLa cervical carcinoma cells EC50. The class given is cell-based. From the text: To assess the cellular efficacy of a histone deacetylase inhibitor in vitro, an assay was set up in black clear-bottom 96-well plates and optimized for use on the Cellomics “ArrayScan II” platform for a quantitative calculation of histone acetylation. The protocol uses a polyclonal rabbit antibody, specifically binding to acetylated lysine 1-20 of human histone H3 on fixed cells with an Alexa Fluor 488 labeled goat anti rabbit-IgG used for counterstaining (Beckers et al. Int J. Cancer 121, 1138, 2007).
5×10^3 HeLa cervical carcinoma cells/well (ATCC. CCL-2) in 200 μl Dulbecco rs modified Eagle's medium (DMEM) containing 10% fetal calf serum are seeded at day 1 in Packard view plates and incubated for 24 h under standard cell culture conditions. On day 2, 1 μl test compound (200× final concentration) is added and incubation continued for further 24 h. On day 3, the culture medium is discarded and attached cells fixed for 15 min at room temperature by addition of 100 μl fixation buffer (3.7% v:v formaldehyde in phosphate buffered saline/PBS). After discarding the fixation buffer and one wash with blocking solution (1% BSA, 0.3% Tween 20 in PBS), cells are permeabilized at room temperature by addition of 100 μl/well permeabilization buffer (30.8 mM NaCl, 0.54 mM Na2HPO4, 0.31 mM KH2PO4, 0.1% v:v Triton X-100) for 15 min at room temperature. After discarding the permeabilization buffer and washing twice with 100 μl/well blocking solution at room temperature, the 1st antibody (anti-K^1-20 histone H3 antibody, Calbiochem No. 382158) in blocking solution (50 μl/well) is added. After incubation for 1 h at room temperature, the wells are washed twice at room temperature with 100 μl/well blocking solution before addition of the 2nd antibody (goat-anti-rabbit Alexa Fluor 488; MoBiTec No. A-11008) in blocking solution (50 μl/well). After further incubation for 1 h at room temperature, wells are washed twice with 100 μl/well blocking solution at room temperature. Finally, 100 μl/well PBS are added and image analysis performed on the Cellomics “ArrayScan II” platform. For EC50 determination, the percentage of positive cells showing nuclear fluorescence is determined and EC50 calculation done from concentration-effect curves by means of non-linear regression. For calibration, a positive (reference HDAC inhibitors like SAHA or NVP LBH-589) and a negative control were included.

Data set [4] has as its target T2, recombinant HDAC1 isolated from HEK293 cells with heterologous HDAC1 expression (Homo sapiens, UniProt Q13547).
T2 construct: made in house
The data set is described as follows: Fluorimetric rHDAC1 activity assay. The note with it: only a range of IC50 over the compounds given; read-out: rHDAC1 inhibitory activity IC50. The class given is biochemical.

Data set [5] has as its target T3, Protein kinase A (PKA) (Homo sapiens, UniProt P17612).
T3 construct: purchased InvitroGen/Panvera, Carlsbad/USA
Kind of data set: Biochemical flash-plate based kinase assay, PKA. From the text: (§1) Active kinase proteins were either obtained from commercial suppliers (Abl, PDGF-Rβ ProQinase, Freiburg/Germany; AblT^315I: Millipore/Upstate, Billerica/USA; PKA: InvitroGen/Panvera, Carlsbad/USA) or prepared in-house (KDR, c-terminal kinase domain AA790-1356, HER2 c-terminal kinase domain, EGFR/HER1 C-terminal kinase domain). As substrates, poly-AGKY for Abl, AblT^315I and PDGF-Rβ (#P-1152 Sigma, Munich/Germany), poly-GluTyr for KDR, HER2 and EGFR/HER1 (#P-0275, Sigma, Munich/Germany) or a PKA substrate peptide for PKA (#12-394, Millipore/Upstate, Billerica/USA) were used. Into each well of a 96-well flashplate (#SMP-200 in the case of Abl, Abl T^315I, PDGF-Rβ, EGFR, HER2 and KDR, #SMP-103 in the case of PKA; Perkin Elmer, Waltham/USA) kinase protein was diluted into kinase assay buffer (50 mM HEPES pH 7.5, 3 mM MgCl2, 3 mM MnCl2, 1 mM DTT, 3 μM sodium orthovanadate, 5 μg/ml PEG 8000) containing the appropriate substrate (final volume 89 μl). DMSO vehicle or compounds are added as 1 μl/well prior to the initiation of the kinase reaction by 10 μl 1 mM [^33P]-γATP (4×10^5 cpm). Reactions were allowed to proceed for a time predetermined to be linear on a time versus phosphorylation plot (30 min for PKA, otherwise 80 min) and terminated with the addition of an equal volume of phosphoric acid (2% H3PO4 for 5 minutes). Plates were washed three times with 0.9% w/v NaCl and quantitated by liquid scintillation counting.

For data set [6], the target named is T4, Bcr-abl T^315I (Homo sapiens, UniProt P00519, T315I).
T4 construct: purchased Millipore/Upstate, Billerica/USA
The data set is described as follows: Biochemical flash-plate based kinase assay, Bcr-abl T315I. The note with it: only a range over the listed compounds is given; read-out: Bcr-abl T^315I inhibition IC50.
Source text: as §1

Data set [7] has as its system SKOV3 ovarian carcinoma cell line. Kind of data set: Cellular cytotoxicity assay (Alamar Blue), SKOV3. It is filed as cell-based. The settings on record: Homo sapiens, SK-OV-3; 72 h; only a range over the listed compounds is given; read-out: Cytotoxicity towards SKOV3 cell line IC50. The method, then: (§2) The anti-proliferative activity of the chimeric HDAC and protein kinase inhibitory chimeric compounds of the present invention was evaluated using HeLa cervical carcinoma, A549 NSCLC, SKOV3 ovarian carcinoma, Cal27 head and neck cancer, K562 chronic myeloid leukemia (CML) and EOL1 acute hypereosinophilic myeloid leukemia, cell lines. For quantification of cellular proliferation/living cells the Alamar Blue (Resazurin) cell viability assay was applied (O'Brien et al. Eur Biochem. 267, 5421-5426, 2000). In this assay Resazurin is reduced to the fluorescent resorufin by cellular dehydrogenase activity, correlating with viable, proliferating cells. The examples were dissolved as 20 mM solutions in dimethylsulfoxide (DMSO) and subsequently diluted in semi-logarithmic steps. Cell lines were seeded at respective density into 96 well flat bottom plates in a volume of 200 μl per well. 24 h after seeding 1 μl each of the compound dilutions were added into each well of the 96 well plate. Each compound dilution was tested as quadruplicates. Wells containing untreated control cells were filled with […] DMEM medium containing 0.5% v:v DMSO. The cells were then incubated with the substances for 72 h at 37° C. in a humidified atmosphere containing 5% carbon dioxide. To determine the viability of the cells, 20 μl of an Resazurin solution (Sigma; 90 mg/l) were added. After 4 h incubation at 37° C. the fluorescence was measured at an extinction of 544 nm and an emission of 590 nm. For the calculation of the cell viability the emission value from untreated cells was set as 100% viability and the emission rates of treated cells were set in relation to the values of untreated cells. Viabilities were expressed as % values. The corresponding IC50 values of the compounds for cytotoxic activity are determined from the concentration-effect curves by means of non-linear regression.
On the technique in general: The colour change of resazurin is a common sign of viable cells or microbes.

Data set [8] has as its system HDACs 4 to 8. The settings on record: read-out: HDACs 4 to 8 IC50; Kalita et al. 2005; cited from earlier work.
Data set [9] deals with T5, HDAC11 (Homo sapiens, UniProt Q96DB2).
T5 sequence (Q96DB2 1-347): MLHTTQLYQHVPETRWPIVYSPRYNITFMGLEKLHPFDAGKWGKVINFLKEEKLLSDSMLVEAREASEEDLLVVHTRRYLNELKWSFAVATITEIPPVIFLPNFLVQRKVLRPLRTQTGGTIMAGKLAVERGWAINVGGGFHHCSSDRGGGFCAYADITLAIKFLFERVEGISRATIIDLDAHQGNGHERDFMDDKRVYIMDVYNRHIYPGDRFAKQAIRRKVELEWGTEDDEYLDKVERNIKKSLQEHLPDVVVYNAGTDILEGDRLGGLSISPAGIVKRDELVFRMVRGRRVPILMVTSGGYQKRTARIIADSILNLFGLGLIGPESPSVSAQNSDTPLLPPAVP
The settings on record: Kalita et al. 2005; one range for HDAC1, 2, 3 and 11; cited from earlier work.

The test system of data set [10] is Cal27 head and neck cancer cell line. Kind of data set: Cellular cytotoxicity assay (Alamar Blue), Cal27. The settings on record: Homo sapiens, CAL-27; 72 h; only a range over the listed compounds is given; read-out: Cytotoxicity towards Cal27 cell line IC50. It is filed as cell-based. The method, then:
as §2

Data set [11] deals with A549 NSCLC cell line. Kind of data set: Cellular cytotoxicity assay (Alamar Blue), A549. The class given is cell-based. The settings on record: Homo sapiens, A549; 72 h; only a range over the listed compounds is given; read-out: Cytotoxicity towards A549 NSCLC cell line IC50.
Data set [12] relates to cellular HDAC activity in HeLa cells. Kind of data set: Quantification of cellular HDAC activity in HeLa cells. The note with it: 4 h compound incubation; for lists of compounds only a range is printed; read-out: Inhibition of cellular HDAC activity in HeLa cells IC50. It is filed as cell-based, human. Here is the method:
To assess the cellular potency of histone deacetylase inhibitors, an assay recently described was applied (Ciossek et al. Anal Biochem e-pub 2007). 5×10^3 HeLa cervical carcinoma cells/well (ATCC CCL-2) were cultivated in 200 μl/well DMEM (containing 10% FCS) in cell culture microliter plates (white, 96 well flat bottom plates suitable for fluorimetric analysis; Costar Art. No. 3917). Cells were cultivated for 24 h under standard cell culture conditions at 37° C. and 5% CO2 to allow cell attachment and proliferation. The compounds of the present invention were added at different concentrations (dilutions done in DMSO) and incubation continued for 4 h at 37° C. under cell culture conditions (each concentration was tested in quadruplicate). […] After discarding the culture medium, 100 μl/well substrate solution (200 μM Boc-K(Ac)-AMC in DMEM (containing 10% FCS), stock solution diluted 1:250) were added and incubation continued at 37° C. under cell culture conditions for further 3 h. […] After incubation for 5 min at 37° C., cells were lysed by addition of 100 μl/well lysis buffer (50 mM TRIS pH 8, 137 mM NaCl, 2.7 mM KCl, 1 mM MgCl2, 1 vol % NP-40) and further incubation for 20 min at 37° C. Finally, the amount of AMC was quantified using the Wallac Victor device (extinction λ=355 nm, emission at λ=460 inn).

T1 sequence (P04626 720-987 limits assumed): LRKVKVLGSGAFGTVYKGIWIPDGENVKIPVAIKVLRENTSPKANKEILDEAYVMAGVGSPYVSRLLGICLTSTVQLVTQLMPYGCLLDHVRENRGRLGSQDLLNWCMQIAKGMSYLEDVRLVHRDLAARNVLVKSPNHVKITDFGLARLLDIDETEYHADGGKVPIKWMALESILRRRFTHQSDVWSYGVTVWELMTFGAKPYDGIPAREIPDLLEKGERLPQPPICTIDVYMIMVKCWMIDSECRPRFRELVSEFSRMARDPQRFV
T2 sequence (Q13547 whole entry): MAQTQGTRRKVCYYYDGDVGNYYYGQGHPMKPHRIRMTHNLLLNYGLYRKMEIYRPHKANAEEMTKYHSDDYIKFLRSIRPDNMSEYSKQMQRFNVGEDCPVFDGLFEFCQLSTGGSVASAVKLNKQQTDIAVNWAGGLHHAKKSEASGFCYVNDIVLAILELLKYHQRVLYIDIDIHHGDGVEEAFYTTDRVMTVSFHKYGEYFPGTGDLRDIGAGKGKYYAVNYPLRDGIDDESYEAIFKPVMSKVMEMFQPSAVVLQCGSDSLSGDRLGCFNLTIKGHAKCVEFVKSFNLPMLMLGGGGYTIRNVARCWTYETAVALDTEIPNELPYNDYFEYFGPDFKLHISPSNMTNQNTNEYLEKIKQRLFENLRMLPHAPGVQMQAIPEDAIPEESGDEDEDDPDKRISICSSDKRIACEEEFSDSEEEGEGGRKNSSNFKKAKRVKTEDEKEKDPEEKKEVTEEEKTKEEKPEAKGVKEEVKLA

Regarding `O=C(NO)c1ccc(-c2ccc3ncnc(Nc4ccc(OCc5cccc(F)c5)c(Cl)c4)c3c2)o1` [[6], 5-{4-[3-Chloro-4-(3-fluorobenzyloxy)phenylamino]-quinazolin-6-yl}furan-2-carboxylic acid hydroxyamide hydrochloride monohydrate], the IC50 in data set [1] is 0.002 to 0.74 µM; in data set [2] (read-out: Cytotoxicity towards HeLa cervical cell line IC50 (M)) it was 9.1e-07 to 9.4e-06 M; in [4], no less than 0.0353 µM; in data set [5], 85 µM. In addition, the EC50 in [3] was no less than 3.65 µM.
For `CN(C(=O)c1ccc(C(=O)Nc2ccccc2N)cc1)c1cccc(Nc2nccc(-c3cccnc3)n2)c1` [[30], N-(2-Amino-phenyl)-N′-methyl-N′-[3-(4-pyridin-3-yl-pyrimidin-2-ylamino)-phenyl]-terephthalamide], the melting point is 204.6 °C (dec.). The same compound displayed an IC50 in [5] of 38 µM. Also, the IC50 in data set [6] fell in the range of 1 to 34 µM.
As to `C#Cc1cccc(Nc2ncnc3cc(NC(=O)c4ccc(C(=O)Nc5ccccc5N)nc4)ccc23)c1` [[39], Pyridine-2,5-dicarboxylic acid 2-[(2-amino-phenyl)-amide]-5-{[4-(3-ethynyl-phenylamino)-quinazolin-7-yl]-amide}], the IC50 in data set [7] was no less than 0.56 µM; in [1] it was 0.002 to 0.74 µM.
As for `Nc1ccccc1NC(=O)c1ccc(CNc2nccc(-c3cccnc3)n2)cc1` [MGCD0103], the IC50 was greater than 20 µM in data set [8] and 0.1 to 2 µM in data set [9].
With `O=C(/C=C/c1cccc(-c2ccc3ncnc(Nc4ccc(OCc5cccc(F)c5)c(Cl)c4)c3c2)c1)NO` [[9], E-3-(3-(4-(3-chloro-4-(3-fluorobenzyloxy)phenylamino)quinazolin-6-yl)phenyl)-N-hydroxy-acrylamide], the IC50 in [10] is no less than 0.28 µM; in data set [7] it was no less than 1 µM; in data set [11], no less than 1.1 µM; in data set [2] (only a range over the listed compounds is given, read-out: Cytotoxicity towards HeLa cervical cell line IC50), 9.1e-07 to 9.4e-06 M; in data set [4], no less than 0.0353 µM; in [12], 0.43 µM. Further, in data set [3], the EC50 was no less than 3.65 µM.
